# In patent publication US20060052344A1, “Heterocyclic silicon compounds and their use in the treatment of diseases or conditions associated with gnrh (gonadotropin-releasing hormone)” (priority 2002, published 2006):
# Several values for one entry are separate records, joined by “and”; a condition that tells them apart may be missing. Equal entries are not always repeated.
compound,measurement,value
COc1cc(OC)c(NC(=O)c2ccc(Cc3cc4c(cc3C)[Si](C)(C)CC[Si]4(C)C)o2)c(OC)c1,melting point,139 °C and 139 to 140 °C
